Legend:
Staphylococcus aureus = assay: killing of bacteria in the absence of light, plated to determine viability; format: cell-based
Source text: Additionally, the ability of ZnPFPTMP to affect killing of bacteria in the absence of light was further tested against the Gram-positive pathogenic bacterium Staphylococcus aureus. This bacterium was chose to evidence the ability of the porphyrins of general formula (I) to treat/kill methicillin-resistant Staphylococcus aureus (MRSA) without exposing the scientists to MRSA directly. Moreover, it is believed that the mechanism used by the porphyrins of general formula (I) is unlikely to involve the methicillin resistance mechanism. S. aureus cells grown in LB medium were washed and re-suspended on 0.2% peptone and exposed to either 1.5 μM or 3.0 μM Zeke in sterile water. Cell suspensions were sampled every 30 minutes for 3 hours and plated to determine viability. […] At 1.5 μM Zeke's complete elimination of viable cells of S. aureus took only two hours.

[1] = system: circular plasmid DNA (pUC18); assay: photocleavage of plasmid DNA in the presence of oxygen, gel electrophoresis; format: biochemical; settings: 50:1 base pair to complex ratio
Description: To appreciate the significance of the increased absorption of ZnPFPTMP in the PDT window, comparative photocleavage studies of plasmid DNA under normal conditions (i.e., in the presence of oxygen) were conducted for ZnPFPTMP and its free-base porphyrin. […] In FIG. 3, gel electrophoresis of circular plasmid DNA (pUC18) in the absence (lane 1) and presence (lanes 2-10) of unmetallated porphyrin (A) and ZnPFPTMP (B) at a 50:1 base pair to complex ratio are shown. Samples were irradiated with a 300 W mercury arc lamp equipped with a long pass filter, cutting off wavelengths below 550 nm, and were taken at 2 minute intervals.
ZnPFPTMP is very reactive at such low energy wavelengths of light.

[2] = system: circular plasmid DNA (pUC18); assay: photocleavage of plasmid DNA in the absence of oxygen, gel electrophoresis; format: biochemical; settings: 10:1 base pair to complex ratio, wavelengths above 420 nm
Description: Referring now to FIG. 4, photocleavage studies based on a 10 to 1 base pairs to ZnPFPTMP was irradiated with a 420 nm filter and samples were taken at 10 minute intervals. In FIG. 3, gel electrophoresis of circular plasmid DNA (pUC18) in the absence (lane 1) and presence (lanes 2-10) of ZnPFPTMP at a 10:1 base pair to complex ratio is shown. Samples were irradiated with a 300 W mercury arc lamp equipped with a long pass filter, cutting off wavelengths below 420 nm in the absence of oxygen, and were taken at 10 minute intervals. Accordingly, ZnPFPTMP can be effective under hypoxic conditions.

[3] = system: Pseudomonas aeruginosa biofilm associated cells; assay: effect on biofilms in the dark; format: cell-based
[4] = system: Pseudomonas aeruginosa planktonic cells; assay: killing of planktonic cells in the absence of light, viable plate counts; format: cell-based; settings: 37° C.
Description: ZnPFPTMP was added to cell suspensions at the concentrations shown in FIG. 5 (0 to 100 μM) and incubated at 37° C. in the absence of light. […]

calf thymus CT-DNA = assay: DNA titration by absorption spectra; format: binding; settings: pH 7.2 buffer, ionic strength 0.1 M
Description: A sample of ZnPFPTMP from Part C was tested by various methods and techniques to determine how this compound may be utilized. In one test ZnPFPTMP was titrated into a DNA sample to determine ZnPFPTMP's affinity for binding to DNA. This test was conducted by measuring the absorption spectra of pH 7.2 buffer solutions (ionic strength=0.1 M) of ZnPFPTMP in the presence of increasing amounts of calf thymus CT-DNA.

Substance: meso-5,10,15-tris(N-methyl-4-pyridyl)-20-(pentafluorophenyl)porphyrinatozinc(II), tris-p-toluene sulfonate [ZnPFPTMP]
- time to complete elimination of viable cells (Staphylococcus aureus; 1.5 μM): two
- log reduction in viable cells (Staphylococcus aureus; 3.0 μM, after 30 min): 5.5 log
- viable cells remaining (Staphylococcus aureus; 3.0 μM, after 60 min): no viable cells remained
- band intensity compared to free-base porphyrin ([1]; after 2 minutes versus free-base porphyrin after 20 minutes, above 550 nm): more intense bands
- photonicking of plasmid DNA ([1]; after two minutes, wavelengths above 550 nm, oxygen present): effective compete photonicking
- photonicking of DNA in the absence of oxygen [2]: effective at photonicking DNA
- biofilm formation ([3]; added to cell suspensions incubated in the dark): Biofilms were prevented
- log reduction in preformed biofilms ([3]; preformed biofilms exposed in the dark (data not shown)): 2.7 log
- killing at two hours ([4]; 2 hours): substantial killing
- MLC (minimum lethal concentration) ([4]; 7 hours, no survivors): 25 µM
- binding constants to DNA (calf thymus CT-DNA): greater than 10^6
